This is an account of results in ChEMBL document CHEMBL1126356, “Structure-activity relationships of the pyridazinone series of 5-lipoxygenase inhibitors” (Bioorg Med Chem Lett, 1992).

Calls of active or inactive are those of the source. The calls are words filed in the database; no cut-off is given here.

The first assay addresses T1, Polyunsaturated fatty acid 5-lipoxygenase (Homo sapiens) (UniProt P09917).
T1 sequence (whole entry): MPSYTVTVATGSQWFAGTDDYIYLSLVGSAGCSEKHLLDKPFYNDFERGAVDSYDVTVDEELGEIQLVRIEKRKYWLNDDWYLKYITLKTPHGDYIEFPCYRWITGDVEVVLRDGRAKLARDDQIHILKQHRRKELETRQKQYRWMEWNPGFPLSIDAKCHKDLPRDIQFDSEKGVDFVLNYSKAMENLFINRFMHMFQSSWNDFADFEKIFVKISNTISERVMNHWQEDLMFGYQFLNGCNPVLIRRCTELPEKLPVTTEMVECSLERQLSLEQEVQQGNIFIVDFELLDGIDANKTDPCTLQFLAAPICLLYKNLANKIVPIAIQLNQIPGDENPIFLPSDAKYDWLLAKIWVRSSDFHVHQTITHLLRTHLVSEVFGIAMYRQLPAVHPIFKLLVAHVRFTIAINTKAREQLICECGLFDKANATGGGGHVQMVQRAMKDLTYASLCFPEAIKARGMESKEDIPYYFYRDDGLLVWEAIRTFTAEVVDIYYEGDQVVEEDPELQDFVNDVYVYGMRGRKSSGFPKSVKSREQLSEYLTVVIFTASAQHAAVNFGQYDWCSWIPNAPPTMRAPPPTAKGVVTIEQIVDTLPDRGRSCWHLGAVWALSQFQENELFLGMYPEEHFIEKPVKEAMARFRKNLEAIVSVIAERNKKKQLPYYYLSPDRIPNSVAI
The experiment in a line: In vitro inhibition of 5-Lipoxygenase; Inactive.
As to `O=C1CCCC(c2ccccc2)=N1`, the result was inactive.

Take `O=C1CCCN(Cc2ccccc2)N1`: the result was inactive.

As to `CCC(=O)N1C(=O)CCCN1c1ccccc1`, the outcome was inactive.

Regarding `O=C1CCC(c2ccccc2)NN1` (stereo unspecified), the outcome was inactive.

Turning to `O=C1CCCN(c2ccccc2)C1`, the result was inactive.

For `CC1CCC(=O)N(c2ccccc2)N1` (stereo unspecified), the result was inactive.

With `O=C1CCCC(c2ccccc2)N1` (stereo unspecified), the outcome was inactive.

`O=C1CCCNN1`: the result was inactive.

Consider `c1ccc(N2CCCCN2)cc1`, for which the result was inactive.

As to `O=C1CCCN(c2ccccc2)N1c1ccccc1`, the result was inactive.

As for `CCCCCN1CCCC(=O)N1`, the result was inactive.

Regarding `O=C1CCCN(C2CCCCC2)N1`, the outcome was inactive.

With `CC1=NN(c2ccccc2)C(=O)CC1`, the result was inactive.

As to `O=C1CCC(c2ccccc2)=NN1`, the result was inactive.

Consider `O=C1CCCN(C(=O)c2ccccc2)N1`, for which the result was inactive.

Consider `CN1C(=O)CCCN1c1ccccc1`, for which the result was inactive.

As for `O=C1CCCN(c2ccccc2)N1C(=O)c1ccccc1`, the result was inactive.

For the molecule `C1=NN(c2ccccc2)CCC1`, the result was inactive.

The target in the next assay is T2, Polyunsaturated fatty acid 5-lipoxygenase (Homo sapiens, UniProt P09917).
T2 sequence (P09917 whole entry): T1 sequence (whole entry)
The assay is described as follows: Inhibitory Activity against 5-Lipoxygenase was determined; IA=Inactive at concentrations less than 32 uM.
What is called IC50 is the point on the concentration scale where inhibition reaches its midpoint. Higher therefore signals weaker potency in that assay. With `O=C1CCCCN(c2ccccc2)N1`, the concentration for half-maximal inhibition (IC50) result was “Not Active”.

The target of a further assay is T1, Polyunsaturated fatty acid 5-lipoxygenase (Homo sapiens). The experiment in a line: Inhibitory Activity against 5-Lipoxygenase at 30 uM was determined; Weakly active.
Usually inhibition stands for the change of the read-out against control, counted positive when it falls. High values mean a strong effect, low ones a weak effect. `O=C1CCC(=O)N(c2ccccc2)N1` returned an inhibition of 24%.

The next assay has the same target. The experiment in a line: Inhibitory Activity against 5-Lipoxygenase at concentration 32 uM was determined.
Consider `O=C1CCCCCN(c2ccccc2)N1`, for which the inhibition is 8%.

A further assay concerns Rattus norvegicus. The assay is described as follows: Compound was tested for in vivo potency in the rat anaphylaxis assay. Format: functional.
The ED50 is the dose at which the effect has come halfway, by size or by number of responders. Read a low ED50 as greater potency. Consider `N#Cc1cccc(N2CCCC(=O)N2)c1`, for which the median effective dose (ED50) stood at 23 mg/kg.

The target of the next assay is T2, Polyunsaturated fatty acid 5-lipoxygenase. The assay is described as follows: Inhibitory activity against 5-lipoxygenase.
`O=C1CCN(c2ccccc2Cl)N1` yielded an IC50 of 3.7 µM.

In turn, `N#Cc1cccc(N2CCCC(=O)N2)c1` had an IC50 of 9.3 µM.

`CC(=O)NNc1ccccc1`: the IC50 was 65 µM.

In turn, `Cc1cccc(N2CCCC(=O)N2)c1` showed a 50% inhibitory concentration (IC50) of 3.4 µM.

The molecule `COc1ccc(N2CCCC(=O)N2)cc1` yielded an IC50 of 156 µM.

With `O=C1CCCN(c2ccccc2Cl)N1`, 99 µM corresponded to half-maximal inhibition (IC50).

Turning to `CCOC(=O)c1cccc(N2CCCC(=O)N2)c1`, the half-maximal inhibitory concentration (IC50) was determined as 5.6 µM.

`CCCCCCCCCCCCN1CCCC(=O)N1` returned an IC50 of 6 µM.

On to `O=C1CCCN(c2cccc(Br)c2)N1`, for which half-maximal inhibition (IC50) was put at 1.8 µM.

`O=C1CCCN(c2cccc(F)c2)N1` returned an IC50 of 5.5 µM.

Regarding `CC(C)(C)C(=O)c1cccc(N2CCCC(=O)N2)c1`, the IC50 was 15 µM.

For `COc1cccc(N2CCCC(=O)N2)c1`, it took 6.7 µM to reach half-maximal inhibition (IC50).

In turn, `COc1ccccc1N1CCCC(=O)N1` returned an IC50 of 204 µM.

For `O=C1CCCN(c2cccc(Cl)c2)N1`, 2.5 µM corresponded to half-maximal inhibition (IC50).

`Cc1ccc(N2CCC(=O)N2)cc1` gave a half-inhibitory concentration (IC50) of 3.5 µM.

In the case of `Cc1ccccc1N1CCCC(=O)N1`, the half-maximal inhibitory concentration (IC50) turned out to be 57 µM.

In turn, `CCc1ccc(N2CCCC(=O)N2)cc1` gave an IC50 of 125 µM.

In turn, `O=C1CCCN(c2cccc(C(F)(F)F)c2)N1` gave a concentration for half-maximal inhibition (IC50) of 5.2 µM.

Turning to `O=C1CCCN(c2ccc(Cl)cc2)N1`, the IC50 came to 79 µM.

With `O=C1CCN(c2ccc(Cl)cc2)N1`, the concentration for half-maximal inhibition (IC50) was 1.1 µM.

Molecule `CC(=O)c1cccc(N2CCCC(=O)N2)c1` yielded a half-maximal inhibitory concentration (IC50) of 19 µM.

In turn, `O=C1CCN(c2cccc(Cl)c2)N1` came in with an IC50 of 0.73 µM.

Turning to `CCCCCCCCN1CCCC(=O)N1`, inhibition was half-maximal at 23 µM (IC50).

`Cc1cccc(N2CCC(=O)N2)c1` yielded a concentration for half-maximal inhibition (IC50) of 1.3 µM.

Consider `Cc1ccccc1N1CCC(=O)N1`, for which the 50% inhibitory concentration (IC50) turned out to be 8.2 µM.

Molecule `CCCC(=O)NNc1ccccc1` showed an IC50 of 52 µM.

In turn, `O=C1CCCN(c2cccc(CO)c2)N1` yielded an IC50 of 53 µM.

The molecule `Cc1ccc(N2CCCC(=O)N2)cc1` yielded an IC50 of 277 µM.

`CCc1cccc(N2CCCC(=O)N2)c1` displayed an IC50 of 3 µM.

In turn, `CCc1ccccc1N1CCCC(=O)N1` registered an IC50 of 39 µM.

Consider `O=C1CCCN(c2ccccc2)N1`, for which the half-maximal inhibitory concentration (IC50) turned out to be 3.8 µM.

The next assay shares this target. The experiment in a line: Inhibitory Activity against 5-Lipoxygenase was determined; NA=No significant inhibitory activity up to 300 uM.
`O=C1CCCN(c2cccc(C(=O)O)c2)N1`: the IC50 entry is recorded as “Not Active”.

Another assay has the same target. The experiment in a line: Inhibitory Activity against 5-Lipoxygenase was determined; IA=Inactive.
As for `CCOC(=O)CCCCCN(N)c1ccccc1`, the IC50 result was “Not Active”.

Turning to `CCOC(=O)CCCCN(N)c1ccccc1`, the 50% inhibitory concentration (IC50) entry is listed as “Not Active”.
